Our source for the IC50 values is US8445680B2, “Tetrahydrothieno pyridines” (Merck Sharp & Dohme Corp., priority 2008, dated 2013).

Structures are written as SMILES. Counter-ions that a name gives are not always drawn.

T1 sequence (Q9GZT9 whole entry): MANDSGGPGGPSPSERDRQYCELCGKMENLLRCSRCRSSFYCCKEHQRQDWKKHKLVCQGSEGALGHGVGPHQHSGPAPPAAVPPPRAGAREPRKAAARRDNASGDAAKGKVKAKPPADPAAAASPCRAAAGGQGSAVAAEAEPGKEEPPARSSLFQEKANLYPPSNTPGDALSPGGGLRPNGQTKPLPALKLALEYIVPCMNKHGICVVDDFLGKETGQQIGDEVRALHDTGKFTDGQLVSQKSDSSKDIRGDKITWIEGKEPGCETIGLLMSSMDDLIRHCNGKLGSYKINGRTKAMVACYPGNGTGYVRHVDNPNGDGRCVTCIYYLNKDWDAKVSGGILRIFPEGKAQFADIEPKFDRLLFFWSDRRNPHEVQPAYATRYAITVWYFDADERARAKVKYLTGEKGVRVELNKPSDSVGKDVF

This assay addresses T1, FLAG-tagged full length PHD2 (Homo sapiens, UniProt Q9GZT9).
T1 construct: FLAG-tagged full length PHD2; FLAG; made in house; host or cells: baculovirus-infected Sf9 cells
Briefly: PHD2 inhibition assay (time resolved fluorescence, HIF-1α peptide hydroxylation, VHL detection). Type of assay: biochemical. Particulars: 0.2 μM 2-oxoglutarate, 0.5 μM HIF-1α peptide, 2 hr at room temperature; read-out: PHD2 Activity (PHD2 binding activity expressed as IC50). How it is done: To each well of a 96-well plate was added 1 μL of test compound in DMSO and 20 μl of assay buffer (50 mM Tris pH 7.4/0.01% Tween-20/0.1 mg/ml bovine serum albumin/10 μM ferrous sulfate/1 mM sodium ascorbate/20 μg/ml catalase) containing 0.15 μg/ml FLAG-tagged full length PHD2 expressed in and purified from baculovirus-infected Sf9 cells. After a 30 min preincubation at room temperature, the enzymatic reactions were initiated by the addition of 4 μL of substrates (final concentrations of 0.2 μM 2-oxoglutarate and 0.5 μM HIF-1α peptide biotinyl-[…]).
Broadly, the IC50 is the concentration needed to halve the response being measured. Consider `O=C(O)CNC(=O)c1c(O)c2c(n(Cc3ccc(Oc4ccc(Cl)cc4)cc3)c1=O)CSC2` [Example 33, N-({1-[4-(4-chlorophenoxy)benzyl]-4-hydroxy-2-oxo-1,2,5,7-tetrahydrothieno[3,4-b]pyridin-3-yl}carbonyl)glycine], for which the IC50 was no more than 10 nM. Then `CCOc1ccc(-c2ccc(Cn3c4c(c(O)c(C(=O)NCC(=O)O)c3=O)CSC4)cc2)cc1` [Example 34, N-({1-[(4′-ethoxybiphenyl-4-yl)methyl]-4-hydroxy-2-oxo-1,2,5,7-tetrahydrothieno[3,4-b]pyridin-3-yl}carbonyl)glycine], with no more than 10 nM; and `O=C(O)CNC(=O)c1c(O)c2c(n(Cc3ccc(-c4cccs4)cc3)c1=O)CSC2` [Example 35, N-({4-hydroxy-2-oxo-1-[4-(2-thienyl)benzyl]-1,2,5,7-tetrahydrothieno[3,4-b]pyridin-3-yl}carbonyl)glycine], with no more than 10 nM.

As to `O=C(O)CNC(=O)c1c(O)c2c(n(Cc3ccc(-c4ccc(OC(F)(F)F)cc4)cc3)c1=O)CSC2` [Example 36, N-[(4-hydroxy-2-oxo-1-{[4′-(trifluoromethoxy)biphenyl-4-yl]methyl}-1,2,5,7-tetrahydrothieno[3,4-b]pyridin-3-yl)carbonyl]glycine], the IC50 is no more than 10 nM.

As for `CCN(CC)C(=O)c1ccccc1-c1ccc(Cn2c3c(c(O)c(C(=O)NCC(=O)O)c2=O)CSC3)cc1` [Example 37, N-{[1-({2′-[(diethylamino)carbonyl]biphenyl-4-yl}methyl)-4-hydroxy-2-oxo-1,2,5,7-tetrahydrothieno[3,4-b]pyridin-3-yl]carbonyl}glycine], the IC50 is no more than 10 nM. `O=C(O)CNC(=O)c1c(O)c2c(n(-c3ccc(-c4ccc(OC(F)(F)F)cc4)cc3)c1=O)CSC2` [Example 38, N-({4-hydroxy-2-oxo-1-[4′-(trifluoromethoxy)biphenyl-4-yl]-1,2,5,7-tetrahydrothieno[3,4-b]pyridin-3-yl}carbonyl)glycine]: the IC50 lay in the range of 10 to 100 nM. The result for `O=C(O)CNC(=O)c1c(O)c2c(n(Cc3ccc(-c4cccc(Cl)c4)nc3)c1=O)CSC2` [Example 39, N-[(l-{[6-(3-chlorophenyl)pyridinium-3-yl]methyl}-4-hydroxy-2-oxo-1,2,5,7-tetrahydrothieno[3,4-b]pyridin-3-yl)carbonyl]glycine trifluoroacetate] reads no more than 10 nM. Turning to `O=C(O)CNC(=O)c1c(O)c2c(n(Cc3ccc(-c4ccc(F)cc4)nc3)c1=O)CSC2` [Example 40, N-[(1-{[6-(4-fluorophenyl)pyridinium-3-yl]methyl}-4-hydroxy-2-oxo-1,2,5,7-tetrahydrothieno[3,4-b]pyridin-3-yl)carbonyl]glycine trifluoroacetate], the IC50 was no more than 10 nM. Then `O=C(O)CNC(=O)c1c(O)c2c(n(Cc3ccc(-c4ccccc4Cl)nc3)c1=O)CSC2` [Example 41, N-[(l-{[6-(2-chlorophenyl)pyridinium-3-yl]methyl}-4-hydroxy-2-oxo-1,2,5,7-tetrahydrothieno[3,4-b]pyridin-3-yl)carbonyl]glycine trifluoroacetate], with no more than 10 nM. The result for `O=C(O)CNC(=O)c1c(O)c2c(n(Cc3ccc(-c4ccccc4F)nc3)c1=O)CSC2` [Example 43, N-[(l-{[6-(2-fluorophenyl)pyridin-3-yl]methyl}-4-hydroxy-2-oxo-1,2,5,7-tetrahydrothieno[3,4-b]pyridin-3-yl)carbonyl]glycine] reads no more than 10 nM; that for `O=C(O)CNC(=O)c1c(O)c2c(n(Cc3ccc(-c4ccc(C(F)(F)F)cc4)nc3)c1=O)CSC2` [Example 44, N-{[4-hydroxy-2-oxo-1-({6-[4-(trifluoromethyl)phenyl]pyridinium-3-yl}methyl)-1,2,5,7-tetrahydrothieno[3,4-b]pyridin-3-yl]caxbonyl}glycine trifluoroacetate], no more than 10 nM. Then `O=C(O)CNC(=O)c1c(O)c2c(n(Cc3ccc(-c4ccccc4C(F)(F)F)nc3)c1=O)CSC2` [Example 45, N-{[4-hydroxy-2-oxo-1-({6-[2-(trifluoromethyl)phenyl]pyridinium-3-yl}methyl)-1,2,5,7-tetrahydrothieno[3,4-b]pyridin-3-yl]carbonyl}glycine trifluoroacetate], with no more than 10 nM; and `N#Cc1cccc(-c2ccc(Cn3c4c(c(O)c(C(=O)NCC(=O)O)c3=O)CSC4)cc2)c1` [Example 46, N-({1-[(3′-cyanobiphenyl-4-yl)methyl]-4-hydroxy-2-oxo-1,2,5,7-tetrahydrothieno[3,4-b]pyridin-3-yl}carbonyl)glycine], with no more than 10 nM. In the case of `CSc1ccccc1-c1ccc(Cn2c3c(c(O)c(C(=O)NCC(=O)O)c2=O)CSC3)cn1` [Example 47, N-{[4-hydroxy-1-({6-[2-(methylthio)phenyl]pyridinium-3-yl}methyl)-2-oxo-1,2,5,7-tetrahydrothieno[3,4-b]pyridin-3-yl]carbonyl}glycine trifluoroacetate], the IC50 is no more than 10 nM. For `Cc1ccccc1-c1ccc(Cn2c3c(c(O)c(C(=O)NCC(=O)O)c2=O)CSC3)cn1` [Example 48, N-[(4-hydroxy-1-{[6-(2-methylphenyl)pyridinium-3-yl-methyl}-2-oxo-1,2,5,7-tetrahydrothieno[3,4-b]pyridin-3-yl)carbonyl]glycine trifluoroacetate], the IC50 is no more than 10 nM. As to `O=C(O)CNC(=O)c1c(O)c2c(n(Cc3ccc(-c4cccc(OC(F)(F)F)c4)nc3)c1=O)CSC2` [Example 49, N-{[4-hydroxy-2-oxo-1-({6-[3-(trifluoromethoxy)phenyl]pyridinium-3-yl}methyl)-1,2,5,7-tetrahydrothieno[3,4-b]pyridin-3-yl]carbonyl}glycine trifluoroacetate], the IC50 was no more than 10 nM. The result for `CCc1ccccc1-c1ccc(Cn2c3c(c(O)c(C(=O)NCC(=O)O)c2=O)CSC3)cn1` [Example 50, N-[(l-{[6-(2-ethylphenyl)pyridinium-3-yl]methyl}-4-hydroxy-2-oxo-1,2,5,7-tetrahydrothieno[3,4-b]pyridin-3-yl)carbonyl]glycine trifluoroacetate] reads no more than 10 nM. On to `O=C(O)CNC(=O)c1c(O)c2c(n(Cc3ccc(-c4cc(F)ccc4F)nc3)c1=O)CSC2` [Example 51, N-[(l-{[6-(2,5-difluorophenyl)pyridinium-3-yl]methyl}-4-hydroxy-2-oxo-1,2,5,7-tetrahydrothieno[3,4-6]pyridin-3-yl)carbonyl]glycine trifluoroacetate], for which the IC50 was no more than 10 nM. Consider `O=C(O)CNC(=O)c1c(O)c2c(n(Cc3ccc(-c4cccc5ncccc45)cc3)c1=O)CSC2` [Example 52, N-{[4-hydroxy-2-oxo-1-(4-quinolinium-5-ylbenzyl)-1,2,5,7-tetrahydrothieno[3,4-b]pyridin-3-yl]carbonyl}glycine chloride], for which the IC50 is no more than 10 nM. The result for `O=C(O)CNC(=O)c1c(O)c2c(n(Cc3cnc(-c4ccccc4Cl)cn3)c1=O)CSC2` [Example 53, N-[(1-{[-5-(2-chlorophenyl)pyrazin-2-yl]methyl}-4-hydroxy-2-oxo-1,2,5,7-tetrahydrothieno[3,4-b]pyridin-3-yl)carbonyl]glycine] reads no more than 10 nM; that for `Cc1ccccc1-c1cnc(Cn2c3c(c(O)c(C(=O)NCC(=O)O)c2=O)CSC3)cn1` [Example 54, N-[(4-hydroxy-1-{[5-(2-methylphenyl)pyrazin-2-yl]methyl}-2-oxo-1,2,5,7-tetrahydrothieno[3,4-b]pyridin-3-yl)carbonyl]glycine], no more than 10 nM; that for `CSc1ccccc1-c1cnc(Cn2c3c(c(O)c(C(=O)NCC(=O)O)c2=O)CSC3)cn1` [Example 55, N-{[4-hydroxy-1-({5-[2-(methylthio)phenyl]pyrazin-2-yl}methyl)-2-oxo-1,2,5,7-tetrahydrothieno[3,4-b]pyridin-3-yl]carbonyl}glycine], no more than 10 nM. Then `O=C(O)CNC(=O)c1c(O)c2c(n(Cc3cnc(-c4cc(F)ccc4F)cn3)c1=O)CSC2` [Example 56, N-[(l-{[5-(2,5-difluorophenyl)pyrazin-2-yl]methyl}-4-hydroxy-2-oxo-1,2,5,7-tetrahydrothieno[3,4-b]pyridin-3-yl)carbonyl]glycine], with no more than 10 nM.

In the case of `O=C(O)CNC(=O)c1c(O)c2c(n(Cc3cnc(-c4ccccc4C(F)(F)F)cn3)c1=O)CSC2` [Example 57, N-{[4-hydroxy-2-oxo-1-({5-[2-(trifluoromethyl)phenyl]pyrazin-2-yl}methyl)-1,2,5,7-tetrahydrothieno[3,4-b]pyridin-3-yl]carbonyl}glycine], the IC50 is no more than 10 nM. The result for `Cc1ccc(-c2ccc(Cn3c4c(c(O)c(C(=O)NCC(=O)O)c3=O)CS(=O)(=O)C4)cc2)cc1` [Example 58, N-({4-hydroxy-1-[(4′-methylbiphenyl-4-yl)methyl]-6,6-dioxido-2-oxo-1,2,5,7-tetrahydrothieno[3,4-b]pyridin-3-yl}carbonyl)glycine] reads no more than 10 nM. Then `Cc1ccc(-c2ccc(Cn3c4c(c(O)c(C(=O)NCC(=O)O)c3=O)C[S+]([O-])C4)cc2)cc1` (stereo not shown) [Example 59, N-({4-hydroxy-1-[(4′-methylbiphenyl-4-yl)methyl]-6-oxido-2-oxo-1,2,5,7-tetrahydrothieno[3,4-b]pyridin-3-yl}carbonyl)glycine], with no more than 10 nM; and `O=C(O)CNC(=O)c1c(O)c2c(n(Cc3ccc(Cl)cc3)c1=O)CS(=O)(=O)C2` [Example 60, N-{[1-(4-chlorobenzyl)-4-hydroxy-6,6-dioxido-2-oxo-1,2,5,7-tetrahydrothieno[3,4-b]pyridin-3-yl]carbonyl}glycine], with no more than 10 nM. The result for `CC(C)c1ccc(Cn2c3c(c(O)c(C(=O)NCC(=O)O)c2=O)CS(=O)(=O)C3)cc1` [Example 61, N-{[4-hydroxy-1-(4-isopropylbenzyl)-6,6-dioxido-2-oxo-1,2,5,7-tetrahydrothieno[3,4-b]pyridin-3-yl]carbonyl}glycine] reads no more than 10 nM.
